The results in this text go back to patent US6903081B2, “Phosphoramidates and methods therefor” (Purdue Research Foundation, priority 2000, dated 2005).

For assay [1], the system named is L1210 leukemia cells. Briefly: Growth inhibition in L1210 mouse leukemia cells. Format: cell-based. As to the method:
In an alternate embodiment of the invention, the analogous thymidine compounds were prepared (i.e., 3 where F═CH3). The thymidine phosphoramidate was activated by reduction of the nitrofuryl group with sodium dithionite in aqueous buffer/acetonitrile at 37° C., and the reaction was monitored by ^31P nmr. Within ten minutes the resonance for the phosphoramidate anion had disappeared and a new peak corresponding to thymidine-5′-phosphate appeared as the exclusive phosphorus-containing product by ^31P nmr. Nucleoside phosphoramidate 3 was then evaluated for its ability to inhibit proliferation of L1210 leukemia cells in vitro. Cells were exposed to drug for 2, 8, 24, and 48 hours; the results are summarized below:
Stock solutions of drugs were prepared in absolute ethanol, and serial dilutions of drug were prepared in ethanol. L1210 cells were suspended in Fisher's medium supplemented with 10% horse serum, 1% glutamine, and 1% antibiotic-antimycotic solution to give 10 mL volumes of cell suspension at a final density of 3-6×10^4 cells/mL. Appropriate volumes of the drug solution were transferred to the cell suspensions, and incubation was continued for 2, 8, 24, or 48 hours. The cells were spun down, resuspended in fresh drug-free medium and returned to the incubator. Final cell counts were determined 48 hours after the start of drug treatment. The data were analyzed by sigmoidal curve fit of cell count vs. Log (drug concentration) and the results expressed as the IC50 (the drug concentration that inhibits cell growth to 50% of control value).

The subject of assay [2] is LM(TK-) cells. Briefly: Tritium assay in LM(TK-) cells. To be noted: L-M(TK-), read-out: IC50 tritium assay. Type of assay: cell-based. As to the method: (§1) Stock solutions of drugs were prepared in absolute ethanol. L1210 cells were suspended in fisher's medium, LM and LM (TK-) cells were suspended in minimum essential medium to give a final density of 11.24×10^6 cells/mL. Aliquots ([…]) of the cell suspension were placed in ependorf tubes, followed by addition of 5 mL of drug solution and incubated at 37° C. for 2 hours. Tritium release reaction was started by the addition of […] of serum free media containing 1 mCi [5-^3H]dCyt in a 0.5 mM dCyt solution. Allowed reaction to incubate for 60 min in a shaking water bath at 37° C. Reaction was terminated by transferring 100 mL of the reaction mixture to ependorf tubes containing 100 mL of a 20% mixture of activated charcoal suspension in 4% aqueous perchloric acid. Tubes were vigorously vortexed, then centrifuged in a microfuge. Radioactivity of […] of the supernatant was measured using a scintillation spectrometer. The data were analyzed by sigmoidal curve fit of CMP vs. Log (drug concentration) and the results expressed as the IC50 (the drug concentration that inhibits cell growth to 50% of control value).

The subject of assay [3] is L1210 cells. Nature of the assay: Tritium assay in L1210 cells. Type of assay: cell-based. Conditions: Mus musculus. As to the method: as §1
Assay [4] has as its system LM cells. Nature of the assay: Tritium assay in LM cells. Format: cell-based. Conditions: read-out: IC50 tritium assay. As for the experimental part:
as §1

The target in assay [5] is pp60src SH2 domain (Homo sapiens, UniProt P12931). Nature of the assay: Binding to pp60src SH2 domain. To be noted: read-out: binding affinity. An excerpt: An alternate embodiment of the invention is illustrated in scheme 3: [drawing 3] This reaction is directed toward the synthesis of phosphoramidate 11A and involved the preparation of the nitrofuryl phosphoramidate of p-hydroxybenzoic acid 9A and coupling of this product with the benzyl amine 10A, prepared from 5-acetylsalicylamide. Briefly, to synthesize the benzoic acid derivative 9A, p-Hydroxybenzoic acid was converted to its allyl ester 6A by reaction of the potassium salt with allylbromide. The allyl ester was reacted with POCl3 and the intermediate phosphoryl dichloride was treated with methyl chlorobutylamine in the presence of triethylamine to give phosphoramidic chloride 7A. Reaction of 7A with the lithium salt of 5-nitro-2-hydroxymethylfuran afforded the phosphoramidate 8A. Deprotection of the allyl ester was accomplished by reaction with Pd(Ph3P)4/sodium p-toluenesulfinate to give the benzoic acid phosphoramidate 9A. Reaction of 9A with isobutyl chloroformate in the presence of triethylamine, followed by addition of benzylamine 10A afforded the desired peptidomimetic prodrug 11A. In order to confirm that the activation chemistry of 11A to 12A would proceed as expected, 11A was reduced with sodium dithionite in ethanol/aqueous buffer and the reaction monitored by ^31P nmr. […]

In assay [6] the test system is luciferase expression in J77 cells transfected with NF-AT-Luciferase plasmid. Briefly: Luciferase inhibition on transfected J77 cells. Type of assay: cell-based. Conditions: read-out: IC50 luciferase inhibition. As to the method: J77 cells (2×10^7 cells in […] of FBS-free RPMI media) were transfected with […] of NF-AT-Luciferase plasmid. Cells were transferred to a flask with 10 mL of complete RPMI media and incubated for 24 hours. After this time cells were spun down, resuspended in 12 mL of complete RPMI media and divided into a 6-well well plate (2 mL/well). Drug stock solutions in DMSO were made and each well was treated with a different concentration and incubated for 2 hours. Each well was then treated with 10 mL of a mixture of 1.25 mg of PMA and 9 mg of Ionomycin in 115 mL of FBS-free RPMI, followed by the addition of 2 mg of Anti-CD3. Cells were incubated for 6 hours, spun down, washed with PBS, lysed for 15 min and centrifuged. Supernantant was collected and stored at −78° C. overnight. Luciferase activity was measured using a luminometer with a mixture of 50 mL of luciferase substrate and 10 ml of supernatant.

Setting [7] is: Mus musculus, L1210, 2 h, read-out: L1210 IC50, drug exposure 2 hr, comparison of compound 5 with compound 3.
The mark [8] stands for this setting: Mus musculus, L1210, 8 h, read-out: L1210 IC50, drug exposure 8 hr, comparison of compound 5 with compound 3.
Setting [9] is: Mus musculus, L1210, 24 h, read-out: L1210 IC50, drug exposure 24 hr, comparison of compound 5 with compound 3.
[10] abbreviates: Mus musculus, L1210, 48 h, drug exposure 48 h, final cell counts 48 hours after start of drug treatment.
The mark [11] stands for this setting: Mus musculus, L1210, 48 h, read-out: L1210 IC50, drug exposure 48 hr, comparison of compound 5 with compound 3.
The mark [12] stands for this setting: Mus musculus, L1210, drug exposure 2 h, final cell counts 48 hours after start of drug treatment.
Setting [13] is: Mus musculus, L1210, drug exposure 8 h, final cell counts 48 hours after start of drug treatment.
Where [14] appears, read: Mus musculus, L1210, drug exposure 24 h, final cell counts 48 hours after start of drug treatment.

pIC50, pKd: −log10 of the molar value. Entries after “also recorded” stand apart in the source; their conditions may differ. Read-outs that look alike come from different tables or passages of the source.

Chain of pp60src SH2 domain (P12931 151-248 limits assumed): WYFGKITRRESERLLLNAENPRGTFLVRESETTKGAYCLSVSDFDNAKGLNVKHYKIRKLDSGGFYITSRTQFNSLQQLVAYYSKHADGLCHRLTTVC

By pIC50 is commonly meant the negative decadic logarithm of the IC50, by convention in mol/L. Take `CN(CCCCCl)P(=O)(OCc1ccc([N+](=O)[O-])o1)OC[C@H]1O[C@@H](n2cc(F)c(=O)[nH]c2=O)CC1O` (stereo partly shown) [Compound 3, 5-Fluoro-2′-deoxyuridyl 5-nitrofurfuryl N-methyl-N-(4-chlorobutyl)phosphoramidate]: the “inhibition of L1210 cell proliferation, in words” value in assay [1] was “significantly more potent than the analogous bromoethyl compound; also recorded: highly potent inhibitors”. Further, the pIC50 in assay [1] (Mus musculus, L1210, 2 h, read-out: L1210 IC50, drug exposure 2 hr) was 6.95; in assay [1] (setting [7]), 6.94; in assay [1] (Mus musculus, L1210, 8 h, read-out: L1210 IC50, drug exposure 8 hr), 7.40; in assay [1] (setting [8]), 7.33; in assay [1] (Mus musculus, L1210, 24 h, read-out: L1210 IC50, drug exposure 24 hr), 8.22; in assay [1] (setting [9]), 8.14. Also, the pIC50 in assay [1] (setting [10]) is 8.64; in assay [1] (Mus musculus, L1210, 48 h, read-out: L1210 IC50, drug exposure 48 hr) it was 8.70; in assay [1] (setting [11]) it was 8.64; in assay [1] (setting [12]), 6.94; in assay [1] (setting [13]) it was 7.33; in assay [1] (setting [14]), 8.14. Besides, the pIC50 in assay [2] was 5.89; in assay [3] (L1210, read-out: IC50 tritium assay) it was 7.34; in assay [4] it was 6.15.

Consider `CN(CCCCCl)P(=O)(OCC1=CC(=O)c2ccccc2C1=O)OC[C@H]1O[C@@H](n2cc(F)c(=O)[nH]c2=O)CC1O` (stereo partly shown) [Compound 5, 5-Fluoro-2′-deoxyuridyl 2-(1,4-napthoquinonyl)methyl N-methyl-N-(4-chlorobutyl)phosphoramidate], for which the “inhibition of L1210 cell proliferation, in words” value in assay [1] is given as “highly potent inhibitors”. The “potency relative to compound 3” value in assay [1] (L1210 cell proliferation) was “approximately 3 fold”. Also, the pIC50 was 7.36 in assay [1] (setting [7]); 7.80 in assay [1] (setting [8]); 8.51 in assay [1] (setting [9]); 9.20 in assay [1] (setting [10]); 9.20 in assay [1] (setting [11]); 7.36 in assay [1] (setting [12]). For the same compound, the negative logarithm of the IC50 (pIC50) in assay [1] (setting [13]) was 7.80; in assay [1] (setting [14]) it was 8.51.

In the case of `O=c1[nH]cc(F)c(=O)[nH]1` [Compound 5-FU, reference compound], the pIC50 is 5.60 in assay [1] (drug exposure 2 h, final cell counts 48 hours after start of drug treatment, read-out: IC50); 5.60 in assay [1] (drug exposure 2 hr, comparison of compound 5 with compound 3, read-out: L1210 IC50); 5.56 in assay [1] (drug exposure 2 hr, read-out: L1210 IC50); 6.00 in assay [1] (drug exposure 8 h, final cell counts 48 hours after start of drug treatment, read-out: IC50); 6.00 in assay [1] (drug exposure 8 hr, comparison of compound 5 with compound 3, read-out: L1210 IC50); 5.86 in assay [1] (drug exposure 8 hr, read-out: L1210 IC50). Moreover, the pIC50 in assay [1] (drug exposure 24 h, final cell counts 48 hours after start of drug treatment, read-out: IC50) was 6.44; in assay [1] (drug exposure 24 hr, comparison of compound 5 with compound 3, read-out: L1210 IC50), 6.44; in assay [1] (drug exposure 24 hr, read-out: L1210 IC50), 6.31; in assay [1] (drug exposure 48 h, final cell counts 48 hours after start of drug treatment, read-out: IC50) it was 6.70; in assay [1] (drug exposure 48 hr, comparison of compound 5 with compound 3, read-out: L1210 IC50), 6.70; in assay [1] (drug exposure 48 hr, read-out: L1210 IC50), 6.58.

In the case of `COC1=CC(=O)c2c(cc(COP(=O)(OCC3OC(n4cc(F)c(=O)[nH]c4=O)CC3O)N(C)CCCCCl)n2C)C1=O` (stereo not shown) [Compound 6, 5-Fluoro-2′-deoxyuridyl 2-(5-methoxy-N-methylindoloquinone)methyl N-methyl-N-(4-chlorobutyl)phosphoramidate], the negative-log IC50 (pIC50) is 8.80 in assay [1] (setting [10]), 7.47 in assay [1] (setting [12]), 7.32 in assay [1] (setting [13]) and 8.32 in assay [1] (setting [14]).

For the compound `CC(NC(=O)c1ccc(OP(=O)(O)O)cc1)c1ccc(OCC2CCCCC2)c(C(N)=O)c1` (stereo not shown) [Compound 12A], the pKd in assay [5] is 5.25.

On to `CC(NC(=O)c1ccc(OP(=O)(OCc2ccc([N+](=O)[O-])o2)N(C)CCCCCl)cc1)c1ccc(OCC2CCCCC2)c(C(N)=O)c1` (stereo not shown) [Compound 35], for which, in assay [6], the negative-log IC50 (pIC50) is 4.47.

On to `CC(NC(=O)c1ccc(OP(=O)(OCC2=CC(=O)c3ccccc3C2=O)N(C)CCCCCl)cc1)c1ccc(OCC2CCCCC2)c(C(N)=O)c1` (stereo not shown) [Compound 37], for which the pIC50 in assay [6] is 5.38.

For `CC(=O)NC(Cc1ccc(OP(=O)(OCc2ccc([N+](=O)[O-])o2)N(C)CCCCCl)cc1)C(=O)NC(C)c1ccc(OCC2CCCCC2)c(C(N)=O)c1` (stereo not shown) [Compound 38], in assay [6], the pIC50 is 5.25.

On to `CC(NC(=O)Cc1ccc(OP(=O)(OCc2ccc([N+](=O)[O-])o2)N(C)CCCCCl)cc1)c1ccc(OCC2CCCCC2)c(C(N)=O)c1` (stereo not shown) [Compound 40], for which the pIC50 in assay [6] is 5.47.

Regarding `CC(NC(=O)c1ccc(NP(=O)(OCc2ccc([N+](=O)[O-])o2)N(C)CCCCCl)cc1)c1ccc(OCC2CCCCC2)c(C(N)=O)c1` (stereo not shown) [Compound 42], the negative-log IC50 (pIC50) in assay [6] (transfected J77 cells, drug 2 hours, then PMA/Ionomycin/Anti-CD3 for 6 hours) was 4.82.

Regarding `O=c1[nH]c(=O)n([C@H]2C[C@H](O)[C@@H](CO)O2)cc1F` [FUdR, 5-Fluoro-2′-deoxyuridine, reference compound], the negative logarithm of the IC50 (pIC50) is 9.19 in assay [1] (Mus musculus, L1210, 48 h, drug exposure 48 h, final cell counts 48 hours after start of drug treatment, read-out: IC50); 7.35 in assay [1] (Mus musculus, L1210, drug exposure 2 h, final cell counts 48 hours after start of drug treatment, read-out: IC50); 7.64 in assay [1] (Mus musculus, L1210, drug exposure 8 h, final cell counts 48 hours after start of drug treatment, read-out: IC50); 8.39 in assay [1] (Mus musculus, L1210, drug exposure 24 h, final cell counts 48 hours after start of drug treatment, read-out: IC50); 5.44 in assay [2] (LM(TK-), drug 2 hours at 37° C., then [5-3H]dCyt 60 min); 8.10 in assay [3] (L1210, drug 2 hours at 37° C., then [5-3H]dCyt 60 min, read-out: IC50 tritium assay). In assay [4] (LM, drug 2 hours at 37° C., then [5-3H]dCyt 60 min), the negative logarithm of the IC50 (pIC50) is 7.23.
